The nature of data set [1]: Microsomal stability in human liver microsomes assessed as parent compound remaining measured after 60 mins. It counts as ADME, Microsome. The note with it: 1 h.
Data set [2] can be described thus: Microsomal stability in human liver microsomes assessed as parent compound remaining measured after 15 mins. To be noted: 0.25 h. Format: ADME, Microsome. On the technique in general: Microsomes from liver hold many membrane-bound enzymes, among them those of drug oxidation.
Data set [3] is described as follows: Microsomal stability in human liver microsomes assessed as parent compound remaining measured after 120 mins. It counts as ADME, Microsome. To be noted: 2 h.
Data set [4] is described as follows: Microsomal stability in human liver microsomes assessed as parent compound remaining measured after 30 mins. The note with it: 0.5 h. Format: ADME, Microsome.
The nature of data set [5]: Microsomal stability in human liver microsomes assessed as parent compound remaining measured immediately. It counts as ADME, Microsome.
Data set [6] addresses T1, 5-hydroxytryptamine receptor 2A (Homo sapiens, UniProt P28223).
Description: Binding affinity to human 5HT2A receptor
Data set [7] has as its target T2, D(2) dopamine receptor (Homo sapiens, UniProt P14416). Description: Binding affinity to human D2 receptor.
Data set [8] concerns the target T3, 5-hydroxytryptamine receptor 1A (Homo sapiens, UniProt P08908).
T3 sequence (P08908 whole entry): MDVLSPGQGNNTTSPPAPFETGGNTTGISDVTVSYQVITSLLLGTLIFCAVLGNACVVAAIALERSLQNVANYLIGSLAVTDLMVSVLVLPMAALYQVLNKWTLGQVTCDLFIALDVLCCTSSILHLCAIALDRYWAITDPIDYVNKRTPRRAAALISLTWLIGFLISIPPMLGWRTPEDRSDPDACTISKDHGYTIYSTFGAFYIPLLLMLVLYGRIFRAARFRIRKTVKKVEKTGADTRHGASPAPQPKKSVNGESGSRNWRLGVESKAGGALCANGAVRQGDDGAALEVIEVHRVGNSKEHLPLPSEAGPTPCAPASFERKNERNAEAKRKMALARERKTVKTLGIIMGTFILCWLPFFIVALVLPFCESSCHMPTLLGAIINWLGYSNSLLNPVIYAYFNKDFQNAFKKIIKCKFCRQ
Description: Binding affinity to human 5HT1A receptor.

Data set [9] deals with T4, D(1A) dopamine receptor (Homo sapiens, UniProt P21728). The data set can be described thus: Binding affinity to human D1 receptor.
T4 sequence (P21728 whole entry): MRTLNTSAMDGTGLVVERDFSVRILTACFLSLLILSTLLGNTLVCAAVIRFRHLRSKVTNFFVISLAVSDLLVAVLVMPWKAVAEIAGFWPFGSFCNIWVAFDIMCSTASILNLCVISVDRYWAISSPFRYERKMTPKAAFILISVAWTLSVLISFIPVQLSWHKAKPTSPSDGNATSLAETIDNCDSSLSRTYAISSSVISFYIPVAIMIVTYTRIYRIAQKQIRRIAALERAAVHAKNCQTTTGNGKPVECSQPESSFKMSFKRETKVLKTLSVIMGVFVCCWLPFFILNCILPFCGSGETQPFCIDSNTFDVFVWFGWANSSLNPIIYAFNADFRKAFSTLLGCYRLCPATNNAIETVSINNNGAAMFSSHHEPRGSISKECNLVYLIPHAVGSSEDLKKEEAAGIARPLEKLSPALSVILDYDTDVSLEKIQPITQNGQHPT
The target of data set [10] is D(1B) dopamine receptor (Homo sapiens) (UniProt P21918). Description: Inhibition of human D5 receptor relative to control. Also noted: concentration or dose not given beside the values. The note with it: concentration not given here.
Chain of D(1B) dopamine receptor (Homo sapiens) (P21918 whole entry): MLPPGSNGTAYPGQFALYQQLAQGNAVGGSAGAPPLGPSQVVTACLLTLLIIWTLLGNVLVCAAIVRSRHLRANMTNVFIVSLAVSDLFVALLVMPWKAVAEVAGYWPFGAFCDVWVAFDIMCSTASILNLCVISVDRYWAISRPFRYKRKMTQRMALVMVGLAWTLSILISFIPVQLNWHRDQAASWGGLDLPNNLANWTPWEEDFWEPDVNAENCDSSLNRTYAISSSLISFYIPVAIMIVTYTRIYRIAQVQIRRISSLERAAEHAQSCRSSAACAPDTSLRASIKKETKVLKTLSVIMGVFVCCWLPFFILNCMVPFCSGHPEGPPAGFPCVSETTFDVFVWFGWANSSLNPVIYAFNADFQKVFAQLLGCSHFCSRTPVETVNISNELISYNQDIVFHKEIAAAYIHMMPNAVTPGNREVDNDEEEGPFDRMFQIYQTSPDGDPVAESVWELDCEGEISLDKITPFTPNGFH
In data set [11] the target is T4, D(1A) dopamine receptor. Description: Inhibition of human D1 receptor relative to control. Also noted: concentration or dose not given beside the values. To be noted: concentration not given here.
Data set [12] deals with T5, 5-hydroxytryptamine receptor 1A (Homo sapiens) (UniProt P08908).
T5 sequence (whole entry): T3 sequence (P08908 whole entry)
The data set can be described thus: Inhibition of human 5HT1A receptor relative to control. Also noted: concentration or dose not given beside the values. To be noted: concentration not given here.

The target in data set [13] is T1, 5-hydroxytryptamine receptor 2A. The data set can be described thus: Inhibition of human 5HT2A receptor relative to control. Also noted: concentration or dose not given beside the values. To be noted: concentration not given here.
Data set [14] has as its target T2, D(2) dopamine receptor. Description: Inhibition of human D2 receptor relative to control. Also noted: concentration or dose not given beside the values. To be noted: concentration not given here.

T1 sequence (P28223 whole entry): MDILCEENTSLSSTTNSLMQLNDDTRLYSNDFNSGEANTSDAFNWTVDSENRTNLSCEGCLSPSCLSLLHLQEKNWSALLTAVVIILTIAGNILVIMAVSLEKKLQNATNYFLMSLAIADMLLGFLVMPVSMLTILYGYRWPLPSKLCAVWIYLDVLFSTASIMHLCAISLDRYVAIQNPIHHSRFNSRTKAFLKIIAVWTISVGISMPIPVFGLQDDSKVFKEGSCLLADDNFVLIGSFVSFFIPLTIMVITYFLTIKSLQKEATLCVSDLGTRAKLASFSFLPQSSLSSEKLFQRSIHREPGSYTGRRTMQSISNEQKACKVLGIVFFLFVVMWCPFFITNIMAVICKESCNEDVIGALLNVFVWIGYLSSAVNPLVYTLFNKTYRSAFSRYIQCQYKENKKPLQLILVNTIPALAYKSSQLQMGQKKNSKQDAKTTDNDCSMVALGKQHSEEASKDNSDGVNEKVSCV
T2 sequence (P14416 whole entry): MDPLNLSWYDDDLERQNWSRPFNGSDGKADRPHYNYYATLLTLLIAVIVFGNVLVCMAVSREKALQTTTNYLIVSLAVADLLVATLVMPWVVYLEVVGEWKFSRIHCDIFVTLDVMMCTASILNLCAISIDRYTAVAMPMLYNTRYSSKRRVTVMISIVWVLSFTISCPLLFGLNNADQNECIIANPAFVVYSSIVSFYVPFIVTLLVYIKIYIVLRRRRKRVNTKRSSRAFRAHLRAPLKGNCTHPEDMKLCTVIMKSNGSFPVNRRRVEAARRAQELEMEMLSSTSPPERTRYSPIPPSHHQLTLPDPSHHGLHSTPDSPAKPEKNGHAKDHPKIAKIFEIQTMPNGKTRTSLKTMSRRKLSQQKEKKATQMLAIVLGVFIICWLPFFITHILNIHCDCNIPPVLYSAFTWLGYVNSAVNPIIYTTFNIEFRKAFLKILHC

For `CN1CCc2cccc3c2[C@H]1Cc1ccc(O)c(O)c1-3` [APOMORPHINE], the Stability in data set [1] was 80.43%; in data set [2], 89.33%; in data set [3] it was 36.68%; in [4] it was 99.73%; in [5], 100%.
By Ki is commonly meant a dissociation constant, usually derived from enzyme kinetics or from competition with a known ligand. As a reminder, the inhibition is the drop in the measured response relative to a control, in per cent. With `COc1cc2c3c(c1OC)-c1cc([N+](=O)[O-])ccc1CC3N(C)CC2` (stereo not drawn), the Ki amounted to 1350 nM in data set [6], 478 nM on D(2) dopamine receptor [7], 458 nM in data set [8] and 726 nM at D(1A) dopamine receptor [9]. This compound also gave an inhibition in data set [10] below 50%.
As to `CN1CCc2cccc3c2C1Cc1ccc(N)cc1-3` (stereo not drawn), the inhibition constant (Ki) in [6] came to 672 nM; at D(2) dopamine receptor [7], 679 nM; in data set [8] it was 269 nM. The inhibition (against D(1A) dopamine receptor [11]; in data set [10]) was below 50% each time.
In the case of `COc1cc2c3c(c1OC)-c1cc(NC(C)=O)ccc1CC3N(C)CC2` (stereo not drawn), the inhibition in [12], in data set [13] and in data set [10] was below 50% each time. The Ki at D(2) dopamine receptor [7] is 978 nM; on D(1A) dopamine receptor [9], 756 nM.
Turning to `C#CCOc1c(OC)cc2c3c1-c1cc(NC(C)=O)ccc1CC3N(C)CC2` (stereo not drawn), the Stability in data set [1] is 95.6%; in data set [2], 99.76%; in data set [3], 102.69%; in data set [4], 97.8%; in data set [5] it was 100%. Further, the inhibition in data set [12] and in data set [10] was below 50% throughout. In addition, the Ki in data set [6] was determined as 1270 nM; on D(2) dopamine receptor [7], 854 nM; at D(1A) dopamine receptor [9], 58 nM.
Turning to `C#CCOc1c(OC)cc2c3c1-c1cc([N+](=O)[O-])ccc1CC3N(C)CC2` (stereo not drawn), the inhibition in data set [13] and in data set [10] was below 50% throughout. Besides, the values for the Ki (on D(2) dopamine receptor [7]; in data set [8]; on D(1A) dopamine receptor [9]) were 2050 nM, 206 nM and 536 nM, respectively.
As to `CC(=O)Nc1ccc2c(c1)-c1cccc3c1C(C2)N(C)CC3` (stereo not drawn), the Ki is 1060 nM in data set [6] and 93 nM in [8]. Moreover, the inhibition (at D(2) dopamine receptor [14]; against D(1A) dopamine receptor [11]; in data set [10]) was below 50% throughout.
In the case of `C=CCOc1c(OC)cc2c3c1-c1cc([N+](=O)[O-])ccc1CC3N(C)CC2` (stereo not drawn), the inhibition (in [13]; against D(2) dopamine receptor [14]; at D(1A) dopamine receptor [11]; in [10]) was below 50% each time. Further, the Ki in [8] stood at 1680 nM.
Turning to `COc1cc2c3c(c1OC)-c1cc(N)ccc1CC3N(C)CC2` (stereo not drawn), the Ki in data set [6] amounted to 585 nM; on D(2) dopamine receptor [7] it was 260 nM; in data set [8], 156 nM; at D(1A) dopamine receptor [9], 691 nM. In [10], the inhibition was below 50%.
Turning to `CN1CCc2cccc3c2C1Cc1ccc([N+](=O)[O-])cc1-3` (stereo not drawn), the inhibition (in data set [13]; against D(2) dopamine receptor [14]; in [10]) was below 50% in each case. Moreover, the inhibition constant Ki was found to be 100 nM in [8] and 928 nM at D(1A) dopamine receptor [9].
Take `COc1cc2c3c(c1OC1CC1)-c1cc([N+](=O)[O-])ccc1CC3N(C)CC2` (stereo not drawn): the inhibition (in data set [13]; against D(2) dopamine receptor [14]; at D(1A) dopamine receptor [11]; in [10]) was below 50% each time. The compound further displayed a Ki in data set [8] of 439 nM.
Turning to `CCCC(=O)Nc1ccc2c(c1)-c1cccc3c1C(C2)N(C)CC3` (stereo not drawn), the inhibition (in data set [13]; at D(2) dopamine receptor [14]; on D(1A) dopamine receptor [11]; in data set [10]) was below 50% each time. The same compound gave a Ki in data set [8] of 83 nM.
For the compound `COc1cc2c3c(c1O)-c1cc(N)ccc1CC3N(C)CC2` (stereo not drawn), the inhibition in data set [12] was below 50%. Moreover, the Ki came out at 850 nM in data set [6] and 301 nM at D(1A) dopamine receptor [9].
With `C#CCOc1c(OC)cc2c3c1-c1cc(N)ccc1CC3N(C)CC2` (stereo not drawn), the Ki in [6] is 378 nM; at D(2) dopamine receptor [7] it was 431 nM; in [8], 428 nM; at D(1A) dopamine receptor [9] it was 709 nM. The inhibition in data set [10] was below 50%.
As to `COc1cc2c3c(c1OC1CC1)-c1cc(N)ccc1CC3N(C)CC2` (stereo not drawn), the inhibition in data set [12] and in data set [10] was below 50% throughout. The figures for the Ki (in data set [6]; at D(2) dopamine receptor [7]; at D(1A) dopamine receptor [9]) were 110 nM, 963 nM and 1110 nM, respectively.
As to `COc1cc2c3c(c1O)-c1cc([N+](=O)[O-])ccc1CC3N(C)CC2` (stereo not drawn), the Ki in data set [6] was 908 nM; at D(2) dopamine receptor [7], 320 nM; in data set [8] it was 548 nM; on D(1A) dopamine receptor [9], 316 nM. In data set [10], this compound displayed an inhibition below 50%.
On to `C=CCOc1c(OC)cc2c3c1-c1cc(NC(C)=O)ccc1CC3N(C)CC2` (stereo not drawn), for which the inhibition (in [12]; against D(2) dopamine receptor [14]; in data set [10]) was below 50% throughout. Moreover, the inhibition constant (Ki) in data set [6] stood at 1220 nM; at D(1A) dopamine receptor [9], 155 nM.
Regarding `CC(C)[N+](C)(CCOC(=O)C1c2ccccc2Oc2ccccc21)C(C)C` [PROPANTHELINE], the Stability in data set [1] came out at 6.4%; in data set [2], 65.33%; in [3] it was 0.16%; in data set [4] it was 36.32%; in data set [5] it was 100%.
`O=[N+]([O-])c1ccc2c(c1)-c1cccc3c1C(C2)NCC3` (stereo not drawn): the inhibition (in [13]; against D(2) dopamine receptor [14]; on D(1A) dopamine receptor [11]; in data set [10]) was below 50% throughout. The compound further displayed a Ki in data set [8] of 350 nM.
Take `C=CCOc1c(OC)cc2c3c1-c1cc(N)ccc1CC3N(C)CC2` (stereo not drawn): the inhibition in [12] and in [10] was below 50% in each case. Moreover, the results for the inhibitory constant (Ki) (in data set [6]; on D(2) dopamine receptor [7]; on D(1A) dopamine receptor [9]) were 234 nM, 759 nM and 830 nM, respectively.

For the origin of these results see ChEMBL document CHEMBL4627308, “Identification of C10 nitrogen-containing aporphines with dopamine D1 versus D5 receptor selectivity” (Bioorg Med Chem Lett, 2020).
